Laboratory results taken from US20090305954A1, “HISTIDINE-CONTAINING DIASTEREOMERIC PEPTIDES AND USES THEREOF” (Yeda Research and Development Co. Ltd., priority 2005, published 2009).
Values after ≈ are worked out from the molar mass of the structure shown. Square brackets hold non-standard residues; d marks the D form. Peptide text beside a SMILES is read from it.

Experiments:
[1] = XTT proliferation (cytotoxicity) assay, normal fibroblasts; type: cell-based, mouse; conditions: mouse, NIH-3T3 normal mouse fibroblasts; NIH3T3, pH 6, 24 h; read-out: Lethal Concentration (LC50)
Method: (§1) The CL1 human prostate carcinoma (PC) cell line is an androgen-independent (AI) subclone of LNCaP cell line, which was generated by culturing androgen-dependent (AD) LNCaP cells in charcoal-stripped, […], as described (Patel et al. 2000). 22RV1 human PC cells are AI sub-clones of the AD prostatic adenocarcinoma CWR22 xenograft (Sramkoski et al. 1999). CL1 and 22RV1 (ATCC, USA) were grown in RPMI-1640 supplemented with 10% FCS (Biological Industries, Beit Haemek, Israel). PC3 and DU145 are androgen-insensitive (AI) (non-responsive), invasive human prostate cancer cell lines. NIH-3T3 mouse fibroblast cell lines (ATCC, USA) were grown in DMEM supplemented with 10% BS. Murine Lewis lung carcinoma (LLC) cell lines were also grown in DMEM medium supplemented with 10% fetal calf serum and antibiotics under the same conditions as above.
(§2) The anticancer activity of the diastereomers 1, 5 and 11-16, 36-39, 42 and 44 was examined against human CL1 prostate cancer, murine LLC (Lewis lung carcinoma), DU 145 and PC3 cell lines. The cell selectivity of the diastereomeric peptides was also studied by examining their effect on NIH-3T3 normal mouse fibroblasts cell line.
(§3) A 96-well plate (Falcon) was used for the XTT proliferation assay. Cancer cells were grown for 24 hours (day 1) in RPMI-1640 medium ([…] cells/100 μl for LLC, CL1, 22RVI, DU 145 and PC3, respectively) supplemented with 10% fetal calf serum and antibiotics, at 37° C., in humidified atmosphere at 5% CO2 and 95% air, resulting in growth medium pH of 7.4. NIH-3T3 fibroblast cells (1×10^4 cells/100 μl) were grown in DMEM medium supplemented with 10% bovine calf serum and antibiotics under the same conditions as described above for the cancerous cells. Wells in the last two rows served as blanks (medium only, for measuring the background color of the medium) and 100% survival controls (cells and medium only without treatment), respectively.
(§4) In day 2, the peptides were dissolved in sterile PBS to a concentration of 200 μM (or 500 μM). The medium in the assay wells was replaced with 100 μl serum free medium. For the assays at pH 6, the medium was initially concentrated (×5 or ×10) and then diluted with double distilled water and addition of sodium carbonate. Before reaching the correct dilution, the medium was adjusted to pH 6 and then more water was added to reach the final dilution. The cells were grown in physiological pH, and the acidic pH was used only during the 24 hours incubation with the peptides. A sign for the correct acidity was a light yellow color of the medium. In line A of the plate, 160 μl of serum free medium was added, if the initial peptide concentration was 500 μM.
(§5) Peptide solutions, 100 μl (or 40 μl) were added to each assay well in line A, such that the final concentration of the peptide was […] and the volume 200 μl. The medium in the wells was mixed with multichannel pipette 5 times and 100 μl of it were transferred to the next row of wells (line B), to give a peptide concentration of 50 μM. The double dilution of the peptides continued downstream the plate in the same manner. The plates were then incubated for 24 h.
(§6) In day 3, XTT reaction solution was prepared by adding to 100 μl aliquots of activation solution (sodium 3′-[1-(phenyl-aminocarbonyl)-3,4-tetrazolium]-bis(4-methoxy-6-nitro) benzene sulfonic acid hydrate and N-methyl dibenzopyrazine methyl sulfate; mixed in a proportion of 50:1) (protected from light and kept in −20° C.), the substrate. 50 μl of XTT reaction solution were added to each well and the plates were incubated for 2 hours (37° C. and 5% CO2+95% air. In cases the incubation was not enough for the creation of the color, it was extended for up to 24 hours). The optical density was read at wavelength of 450 nm in an ELISA plate reader. Cell viability was determined relative to the control and final results were recorded. The results were confirmed using replications in at least three independent experiments. […]

[2] = tested on: NIH-3T3 normal mouse fibroblasts cell line; assay: as above; type: cell-based; conditions: NIH3T3, pH 7.4, 24 h
Method: as §1, §2, §3, §4, §5, §6

[3] = tested on: CL1 human prostate carcinoma cell line; assay: XTT proliferation (cytotoxicity) assay, CL1; type: cell-based
Method: as §1, §2, §3, §4, §5, §6

22RV1 human PC cells = assay: XTT proliferation (cytotoxicity) assay, 22RV1; type: cell-based
Method: as §1, §3, §4, §5
In day 3, XTT reaction solution was prepared by adding to 100 μl aliquots of activation solution (sodium 3′-[1-(phenyl-aminocarbonyl)-3,4-tetrazolium]-bis(4-methoxy-6-nitro) benzene sulfonic acid hydrate and N-methyl dibenzopyrazine methyl sulfate; mixed in a proportion of 50:1) (protected from light and kept in −20° C.), the substrate. 50 μl of XTT reaction solution were added to each well and the plates were incubated for 2 hours (37° C. and 5% CO2+95% air. In cases the incubation was not enough for the creation of the color, it was extended for up to 24 hours). The optical density was read at wavelength of 450 nm in an ELISA plate reader. Cell viability was determined relative to the control and final results were recorded. The results were confirmed using replications in at least three independent experiments. The LC50 for each peptide was obtained from the curve of cell viability versus concentration of peptide and taken from the concentration at which cell viability was 50%. The data shown in Table 1 are for only one experiment, but representative of all replications.

[4] = tested on: Murine Lewis lung carcinoma (LLC) cell line; assay: XTT proliferation (cytotoxicity) assay, LLC; type: cell-based
Method: as §1, §2, §3, §4, §5, §6

[5] = tested on: DU145 human prostate cancer cell line; assay: XTT proliferation (cytotoxicity) assay, DU145; type: cell-based
Method: as §1, §2, §3, §4, §5, §6

[6] = tested on: PC3 human prostate cancer cell line; assay: XTT proliferation (cytotoxicity) assay, PC3; type: cell-based; conditions: PC3, pH 7.4, 24 h
Method: as §1, §2
A 96-well plate (Falcon) was used for the XTT proliferation assay. Cancer cells were grown for 24 hours (day 1) in RPMI-1640 medium (5×10^3, 7×10^3, 1×10^4 and 7×10^3 cells/100 μl for LLC, CL1, 22RVI, DU 145 and PC3, respectively) supplemented with 10% fetal calf serum and antibiotics, at 37° C., in humidified atmosphere at 5% CO2 and 95% air, resulting in growth medium pH of 7.4. […]
In day 3, XTT reaction solution was prepared by adding to 100 μl aliquots of activation solution (sodium 3′-[1-(phenyl-aminocarbonyl)-3,4-tetrazolium]-bis(4-methoxy-6-nitro) benzene sulfonic acid hydrate and N-methyl dibenzopyrazine methyl sulfate; mixed in a proportion of 50:1) (protected from light and kept in −20° C.), the substrate. […] The optical density was read at wavelength of 450 nm in an ELISA plate reader. Cell viability was determined relative to the control and final results were recorded. […]

[7] = tested on: pepsin, trypsin, and elastase; assay: Resistance to proteolytic digestion (reverse-phase HPLC); type: in vitro ADME; conditions: after 2 hr, 140 μM peptide, 25 μM protease, 37° C.
Method: In order to reach their target, the diastereomers have to withstand proteolytic digestion of proteases, which may occur after their administration and during the time until they reach the target site. The susceptibility of the peptides 13 and 14 to proteolytic digestion by pepsin (from porcine stomach mucosa, Sigma), trypsin (from bovine pancreas, Sigma), and elastase (from human leukocytes, Sigma) was assessed by reverse-phase HPLC. As a negative control, the all L-amino acid analog peptides were used. Equal amounts of the peptides were dissolved in PBS (35 mM phosphate buffer/0.15 M NaCl, pH 7.3) at a final concentration of 140 μM, to which 25 μM of protease were added. […] After the addition of the appropriate protease inhibitor to stop the reaction, aliquots were injected to C18 column and the amounts of the intact peptides 13 and 14 and their all L analogs were evaluated using their absorbance at 215 nm.

SMILES: CC(C)C[C@H](NC(=O)[C@H](CC(C)C)NC(=O)[C@@H](CCCCN)NC(=O)[C@H](CC(C)C)NC(=O)[C@H](CC(C)C)NC(=O)[C@H](Cc1c[nH]cn1)NC(=O)[C@@H](CCCCN)NC(=O)[C@@H](CC(C)C)NC(=O)[C@H](CC(C)C)NC(=O)[C@@H](CCCCN)NC(=O)[C@H](Cc1c[nH]cn1)NC(=O)[C@H](CC(C)C)NC(=O)[C@@H](CC(C)C)NC(=O)[C@H](Cc1c[nH]cn1)NC(=O)[C@@H](N)CC(C)C)C(N)=O [Peptide 14] (H-LH[dL]LH[dK]L[dL][dK]HLL[dK]LL-NH2)
- CC50 at 24 h [1]: 25 µg/mL (≈ 13.7 µM)
- Lethal Concentration (LC50) [2]: 100 µg/mL
- Lethal Concentration (LC50) ([3]; CL1, pH 6, 24 h): 12.5 µg/mL
- Lethal Concentration (LC50) ([3]; CL1, pH 7.4, 24 h): 12.5 µg/mL
- activity compared with peptide 1 ([3]; CL1 and 22RVI, pH 7.4): half as active
- active concentration lower than against NIH-3T3 ([3]; CL1 vs NIH-3T3, pH 7.4): 8 fold
- active concentration lower than against NIH-3T3 ([3]; CL1 vs NIH-3T3 at the same pH): at least two-fold lower
- Lethal Concentration (LC50) (22RV1 human PC cells; 22RV1, pH 6, 24 h): 12.5 µg/mL
- Lethal Concentration (LC50) (22RV1 human PC cells; 22RV1, pH 7.4, 24 h): 25 µg/mL
- Lethal Concentration (LC50) ([4]; pH 6, 24 h): 25 µg/mL
- Lethal Concentration (LC50) ([4]; pH 7.4, 24 h): 50 µg/mL
- Lethal Concentration (LC50) ([5]; DU145, pH 6, 24 h): 9.3 µg/mL
- Lethal Concentration (LC50) ([5]; DU145, pH 7.4, 24 h): 12.5 µg/mL
- Lethal Concentration (LC50) [6]: 18.7 µg/mL
- proteases digestion [7]: ~50%
